Reference: patent EP0423133B1, “ENZYMATIC RESOLUTION SYSTEMS AND COMPOUNDS USEFUL IN THE SYSTEMS AND THEIR REPARATIONS” (priority 1988, dated 1989)
Counter-ions that a name gives are not always drawn.

Assays:
Prozyme 6 [1] = experiment: Homogeneous aqueous enzymatic resolution (ester hydrolysis) with enzyme F; format: biochemical, Aspergillus oryzae; details: for Conversion in Homogeneous Aqueous Reaction System: 30 °C
Prozyme 6 [2] = experiment: Asymmetric hydrolysis in an extractive membrane reactor with enzyme F; format: biochemical, Aspergillus oryzae; details: for enantiomeric excess: chiral HPLC, enzyme in aqueous phase only, 6.3 hours
[3] = target: T1, Protease XXVII: "Nagarse" (Bacillus amyloliquefaciens, UniProt P00782); experiment: Homogeneous aqueous enzymatic resolution (ester hydrolysis) with enzyme D; format: biochemical; details: 10.0 mmol ester in 100 ml 0.2 M phosphate buffer pH 7.0, 100 mg enzyme D, 20-22 °C, 20 hours
T1 sequence (P00782 108-382): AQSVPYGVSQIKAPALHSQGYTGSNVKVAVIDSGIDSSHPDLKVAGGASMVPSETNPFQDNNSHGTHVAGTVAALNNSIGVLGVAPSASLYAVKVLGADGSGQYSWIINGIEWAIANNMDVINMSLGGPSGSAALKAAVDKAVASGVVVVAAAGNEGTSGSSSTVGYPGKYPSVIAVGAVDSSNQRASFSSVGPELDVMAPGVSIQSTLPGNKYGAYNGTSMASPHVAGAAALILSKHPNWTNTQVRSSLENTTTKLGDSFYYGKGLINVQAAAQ
Excerpt: (§1) The enzymes used in Examples 6.2.1.1-6.2.1.17, 6.2.1.20-6.2.1.21, 6.2.1.23-6.2.1.28, 6.2.2.7, and 6.2.3.1-6.2.3.5 that follow were all proteases commercially available from Sigma Chemical Co., St. Louis, MO. These proteases are listed in each example using the Sigma numbering system, which is summarized below: • Protease VIII: "Subtilopeptidase A", product P-5380 (also known as subtilisin Carlsberg) • Protease XIV: from Streptomyces griseus, product P-5147 • Protease XVI: from Bacillus subtilis, product P-8775 • Protease XXIII: from Aspergillus oryzae, product P-4032 • Protease XXVII: "Nagarse", product P-4789 • Protease XXIV: bacterial protease, product P-8038 An additional protease enzyme, which was designated Prozyme 6, was obtained from the Amano Enzyme Corporation and used in Examples 6.2.1.18-6.2.19, 6.2.1.22, 6.2.1.29-6.2.1.30 and 6.2.2.1-6.2.2.4 described below. A pig liver esterase was used in Example 6.21.11; this enzyme, obtained from Sigma Chemical Company, was designated as their product E-3128. For examples 6.2.2.5-6.2.2.6, Candida lipase obtained from Genzyme Corporation was used. Finally, Candida lipase, product L-1754, obtained from Sigma Chemical Co. was used in Example 6.2.2.7.

[4] = target: T2, Protease VIII: "Subtilopeptidase A" (Bacillus licheniformis, UniProt P00780); experiment: Homogeneous aqueous enzymatic resolution (ester hydrolysis) with enzyme B; format: biochemical; details: 10.0 mmol ester in 100 ml 0.2 M phosphate buffer pH 7.0, 100 mg enzyme B, 20-22 °C, 20 hours
T2 sequence (P00780 106-379): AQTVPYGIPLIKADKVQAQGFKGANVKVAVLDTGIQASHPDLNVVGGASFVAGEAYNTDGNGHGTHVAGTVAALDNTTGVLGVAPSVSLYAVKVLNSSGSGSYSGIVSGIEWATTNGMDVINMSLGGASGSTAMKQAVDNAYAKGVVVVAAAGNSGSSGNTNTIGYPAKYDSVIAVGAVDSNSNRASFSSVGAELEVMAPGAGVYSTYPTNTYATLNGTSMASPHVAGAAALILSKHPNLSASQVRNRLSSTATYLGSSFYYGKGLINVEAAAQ

Prozyme 6 [5] = experiment: Asymmetric hydrolysis in an extractive dispersion reactor with enzyme F; format: biochemical, Aspergillus oryzae; details: 3.38 gm ester in 100 ml 0.2 M sodium phosphate buffer pH 7.0 and 100 ml hexane, 100 mg Prozyme 6, 3.5 hours at room temperature, vigorous stirring
Description: In this Example, the hexane was dispersed in the reaction vessel to extract the inhibitory ibuprofen acid as it is formed. The
reaction was started by adding 100 mg of the protease from the fungus Aspergillus oryzae (from Amano Enzyme Corporation, Prozyme 6, 60,000 units per mg of solid).
After 3.5 hours at room temperature with vigorous stirring, the solution was acidified to pH 2 and extracted with 2 volumes of hexane. The aqueous phase was saved for subsequent workup. The hexane phase was dried over MgS04 and evaporated to dryness. The resolved ibuprofen product so recovered consisted of 490 mg of white powder, indicating 24% conversion. The optical rotation was -0.568 (c = 1.015 in ethanol), indicating the R isomer of ibuprofen.

[6] = system: lipase from Candida cylindracea (Lipase OF); experiment: Activity of the carrier lipase against the ester; format: biochemical; details: Meito Sangyo Company
Protease XXIII [7] = experiment: Homogeneous aqueous enzymatic resolution (ester hydrolysis) with enzyme A; format: biochemical, Aspergillus oryzae; details: 10.0 mmol ester in 100 ml 0.2 M phosphate buffer pH 7.0, 100 mg enzyme A, 20-22 °C, 20 hours
Description: The enzymes used in Examples 6.2.1.1-6.2.1.17, 6.2.1.20-6.2.1.21, 6.2.1.23-6.2.1.28, 6.2.2.7, and 6.2.3.1-6.2.3.5 that follow were all proteases commercially available from Sigma Chemical Co., St. Louis, MO. […] For examples 6.2.2.5-6.2.2.6, Candida lipase obtained from Genzyme Corporation was used.
No further purification was performed.
The aqueous layer was retained.

Protease XVI = experiment: Homogeneous aqueous enzymatic resolution (ester hydrolysis) with enzyme C; format: biochemical, Bacillus subtilis; details: 10.0 mmol ester in 100 ml 0.2 M phosphate buffer pH 7.0, 100 mg enzyme C, 20-22 °C, 20 hours
Excerpt: as §1

intact microorganism = details: 400 mg dried cells, 160 mg (±)-substrate; Iriuchijima and Keiyu 1981; cited from earlier work
[8] = system: Candida lipase (Genzyme Corporation); experiment: Asymmetric hydrolysis in a multiphase membrane bioreactor with enzyme G; format: biochemical, Candida cylindracea; details: first 45 minutes; 0.75M ester in MIBK, 3.0 grams lipase in membrane, pH 8.50
Excerpt: The module was then drained.
This material was recrystallized from hexane.

Protease XIV = experiment: Rate of hydrolysis of single enantiomers by pH stat, enzyme I; format: biochemical, Streptomyces griseus; details: for Rate: 50 mM single enantiomer, 50 mM buffer pH 7.6, Example 6.2.3.2 (enzyme I in text, (G) in table)
Description: (§2) 15 ml of a solution containing one enantiomer of the ester at a concentration of 50 mM, and Na3PO4 buffer at 50 mM and pH 7.6 was observed using a pH stat device. 0.1 ml of a 50 mg/ml solution of protease enzyme I, made up from the commercially available preparation in 50 mM Na3PO4 buffer at pH 7.6, were added. Rates of hydrolysis of both enantiomers of the ester compound were determined for the protease enzyme. The ratio of the rates of hydrolysis for the two enantiomers for the two enantiomers with respect to the enzyme indicate the stereospecificity of that enzyme's hydrolytic action on the racemic mixture of the ester. No
evidence for the hydrolysis of the acetylthio ester portion of the substrate molecule was found.

[9] = system: Protease XXIV: bacterial protease; experiment: Rate of hydrolysis of single enantiomers by pH stat, enzyme J; format: biochemical; details: for Rate: 50 mM single enantiomer, 50 mM buffer pH 7.6, Example 6.2.3.4 (Enzyme J in text, (H) in table)
Description: as §2, with “Enzyme J,” for “protease enzyme I,”, “the” for “the protease”, “No evidence for the hydrolysis of the acetylthio ester portion of the substrate molecule was found.” for “No”

Protease XXIII [10] = experiment: Rate of hydrolysis of single enantiomers by pH stat, enzyme A; format: biochemical, Aspergillus oryzae; details: for Rate: 50 mM single enantiomer, 50 mM buffer pH 7.6, enzyme A
Description: as §2, with “of” for “of protease”, “enzyme A,” for “enzyme I,”, “mM Na3 P04” for “mM Na3PO4”, “the” for “the protease”, “No evidence for the hydrolysis of the acetylthio ester portion of the substrate molecule was found.” for “No”

[11] = target: T1, Protease XXVII: "Nagarse"; experiment: Rate of hydrolysis of single enantiomers by pH stat, enzyme D; format: biochemical; details: for Rate: 50 mM single enantiomer, 50 mM buffer pH 7.6, enzyme D
Description: as §2, with “of” for “of protease”, “enzyme D,” for “enzyme I,”, “mM Na3 P04” for “mM Na3PO4”, “the” for “the protease”, “No evidence for the hydrolysis of the thioacetyl ester portion of the substrate molecule was found.” for “No”

[12] = target: T2, Protease VIII: "Subtilopeptidase A"; experiment: Rate of hydrolysis of single enantiomers by pH stat, enzyme B; format: biochemical; details: for Rate: 50 mM single enantiomer, 50 mM buffer pH 7.6, enzyme B
Description: as §2, with “of” for “of protease”, “enzyme B,” for “enzyme I,”, “mM Na3 P04” for “mM Na3PO4”, “the” for “the protease”, “No evidence for the hydrolysis of the acetylthio ester portion of the substrate molecule was found.” for “No”

SMILES: CC(C)Cc1ccc(C(C)C(=O)OCS(=O)(=O)O)cc1 (racemic) [Compound 1, Sodium Salt of 4-Sulfomethyl Ester of 2-(4-Isobutylphenyl) propanoic Acid]
- conversion of racemic ester to acid (Prozyme 6 [1]; 3.22 gm ester in 100 ml 0.2 M sodium phosphate buffer pH 7.0, 100 mg protease (F), 20 hours at room temperature): 45%
- conversion (Prozyme 6 [1]; After 6.49 hours at 30 °C, 0.5 M ester in 325 ml 0.1 M sodium phosphate buffer pH 7.0, 3 gm enzyme (F)): 37.7%
- Conversion in Homogeneous Aqueous Reaction System (Prozyme 6 [1]; Time 6.75 hrs, 0.5 M ester in 325 ml 0.1 M sodium phosphate buffer pH 7.0, 3 gm enzyme (F)): 37.7%
- Conversion in Homogeneous Aqueous Reaction System (Prozyme 6 [1]; Time 23.1 hrs, 0.5 M ester in 325 ml 0.1 M sodium phosphate buffer pH 7.0, 3 gm enzyme (F)): 40.9%
- enantiomeric excess (Prozyme 6 [2]; R ibuprofen acid product): 99.3%
- enantiomeric excess (Prozyme 6 [2]; S ibuprofen from hydrolysis (pH 12) of the unconverted ester): 98.9%
- conversion of the racemic ester to the acid (Prozyme 6 [2]; enzyme in aqueous phase and in membrane pores (polyacrylonitrile fibers, 80% cyclohexane:20% toluene), 0.5 M ester, 3 gm protease (F), 6.75 hours at 30 °C): 48.3%
- conversion of the racemic ester to ibuprofen acid (Prozyme 6 [2]; enzyme in aqueous phase only (cellulose dialysis fibers, hexane), 32.51 gm ester in 1000 ml 0.1 M sodium phosphate buffer pH 7.0, 2 gm protease (F), 6.3 hours at room temperature): 50%
- % CONVERSION [3]: 34.0%
- % e.e. ([3]; acid product, R): 37.7%
- % CONVERSION [4]: 29.1%
- % e.e. ([4]; acid product, R): 44.6%
- conversion (Prozyme 6 [5]): 24%
- activity of the enzyme against the ester [6]: inactive
- % CONVERSION (Protease XXIII [7]): 37.9%
- % e.e. (Protease XXIII [7]; acid product, R): >99%
- % CONVERSION (Protease XVI): 27.2%
- % e.e. (Protease XVI; acid product, R): 70.7%

SMILES: COC(=O)C(C)c1ccc2cc(OC)ccc2c1 (racemic) [Compound 18, Methyl Ester of 2-(6-Methoxy-2-naphthyl)propanoic Acid]
- substrate converted (intact microorganism): 16.3%
- average rate [8]: 35 amol/hr

SMILES: CC(=O)SC[C@@H](C)C(=O)OCS(=O)(=O)O [Compound 14, Potassium Salt of the Sulfomethyl Ester of D-(-)-S-3-Acetylthio-2-methylpropanoic Acid]
- Rate (Protease XIV): 63 umols/hr/mg
- Rate [9]: 61 umols/hr/mg
- Rate (Protease XXIII [10]): 5.3 umols/hr/mg
- Rate [11]: 27 umols/hr/mg
- Rate [12]: 65 umols/hr/mg

SMILES: CC(=O)SC[C@H](C)C(=O)OCS(=O)(=O)O [Compound 15, Potassium Salt of the Sulfomethyl Ester of L-(+)-S-3-Acetylthio-2-methylpropanoic Acid]
- Rate (Protease XIV): 105 umols/hr/mg
- Rate Ratio L/D (Protease XIV; Example 6.2.3.2, pH 7.6): 1.7
- Rate [9]: 65 umols/hr/mg
- Rate Ratio L/D ([9]; Example 6.2.3.4, pH 7.6): 1.1
- Rate (Protease XXIII [10]): 12 umols/hr/mg
- Rate Ratio L/D (Protease XXIII [10]; enzyme A, pH 7.6): 2.3
- Rate [11]: 29 umols/hr/mg
- Rate Ratio L/D ([11]; enzyme D, pH 7.6): 1.1
- Rate [12]: 135 umols/hr/mg
- Rate Ratio L/D ([12]; enzyme B, pH 7.6): 2.1
